Tested on: NMNAT2
Experiment: NMNAT2-Hibit nano-luciferase activity in stably transfected U87MG cells, various concentrations, 24 hours
Assay type: cell-based
Conditions: U87MG cells stably transfected with NMNAT2-Hibit luc plasmid
Description: Selected compounds were tested in vitro. U87MG cells were stably transfected with NMNAT2-Hibit luc plasmid. Cells were treated with a test compound at various concentrations for 24 hours. Cells were then collected and assayed for nano-luciferase activity.

| Structure (SMILES) | E: compound efficacy for NMNAT2 activation (concentration giving >25% increase in NMNAT2 luciferase activity) |
| --- | --- |
| CCCCN(CC)Cc1ccc(CNC(=O)[C@H]2C[C@@H]2c2cn(Cc3cc(C)ccc3C)c3ccccc23)o1 (racemic) [BC20353] | ++ (“++” >25% increase in NMNAT2 luciferase activity at >1 μM ≤25 μM.) |
| Cc1ccc(Cn2c3c(c4ccccc42)C(C(=O)NCc2ccccc2F)CCC3)cc1 (centres unmarked) [BC20385] | ++ (“++” >25% increase in NMNAT2 luciferase activity at >1 μM ≤25 μM.) |
| Cc1ccc(C)c(Cn2cc3c4c(cccc42)C(=O)N(Cc2ccccc2C)CC3)c1 [BC20271] | + (“+” >25% increase in NMNAT2 luciferase activity at >25 μM.) |
| O=C1c2cccc3c2c(cn3Cc2cccc(F)c2)CCN1CCOc1ccccc1 [BC20341] | + (“+” >25% increase in NMNAT2 luciferase activity at >25 μM.) |
| Cc1c(C)n(Cc2cccc(F)c2)c2ccc(C(=O)NCc3cccnc3)cc12 [BC20265] | ++ (“++” >25% increase in NMNAT2 luciferase activity at >1 μM ≤25 μM.) |
| O=C(NCc1ccco1)C1CCc2c(c3ccccc3n2Cc2cccc(F)c2)C1 (centres unmarked) [BC20220] | ++ (“++” >25% increase in NMNAT2 luciferase activity at >1 μM ≤25 μM.) |
| Cc1c(C)n(Cc2ccccc2F)c2ccc(C(=O)NCc3ccncc3)cc12 [BC20197] | ++ (“++” >25% increase in NMNAT2 luciferase activity at >1 μM ≤25 μM.) |
| Cc1c(C)n(Cc2ccccc2F)c2ccc(C(=O)NCc3ccco3)cc12 [BC20100] | ++ (“++” >25% increase in NMNAT2 luciferase activity at >1 μM ≤25 μM.) |
| COc1cccc(CNC(=O)CCCc2cn(Cc3cccc(C)c3)c3ccccc23)c1 [BC20169] | ++ (“++” >25% increase in NMNAT2 luciferase activity at >1 μM ≤25 μM.) |
| CCCCN(CC)Cc1ccc(CNC(=O)CCc2c(C(F)F)n(Cc3cc(C)ccc3C)c3ccccc23)o1 [BC20406] | +++ (“+++” >25% increase in NMNAT2 luciferase activity at ≤1 μM.) |
| O=C(CCCc1cn(Cc2ccccc2F)c2ccccc12)NCCc1ccccc1 [BC20131] | ++ (“++” >25% increase in NMNAT2 luciferase activity at >1 μM ≤25 μM.) |
| Cc1cccc(CNC(=O)C2CCc3c(c4ccccc4n3CC(=O)NCc3ccco3)C2)c1 (centres unmarked) [BC20239] | ++ (“++” >25% increase in NMNAT2 luciferase activity at >1 μM ≤25 μM.) |
| Cc1ccccc1Cn1cc(CCCC(=O)NCc2cccc(F)c2)c2ccccc21 [BC20152] | ++ (“++” >25% increase in NMNAT2 luciferase activity at >1 μM ≤25 μM.) |
| CC(Cc1ccco1)NC(=O)CCCc1cn(Cc2cccc(F)c2)c2ccccc12 (centres unmarked) [BC20145] | ++ (“++” >25% increase in NMNAT2 luciferase activity at >1 μM ≤25 μM.) |
| Cc1ccccc1Cn1cc(CCCC(=O)N2CCN(C(=O)c3ccco3)CC2)c2ccccc21 [BC20158] | ++ (“++” >25% increase in NMNAT2 luciferase activity at >1 μM ≤25 μM.) |
| O=C(Cn1c2c(c3ccccc31)CN(C(=O)NCCc1ccccc1)CC2)NCc1ccco1 [BC20329] | + (“+” >25% increase in NMNAT2 luciferase activity at >25 μM.) |
| O=C(NCc1cccc(F)c1)N1CCc2c(c3ccccc3n2Cc2ccncc2)C1 [BC20334] | + (“+” >25% increase in NMNAT2 luciferase activity at >25 μM.) |
| O=C(Cn1c2c(c3ccccc31)CC(C(=O)NCc1ccco1)CC2)NCc1cccnc1 (centres unmarked) [BC20292] | ++ (“++” >25% increase in NMNAT2 luciferase activity at >1 μM ≤25 μM.) |
| Cc1cccc(CN2CCc3cn(Cc4cc(C)ccc4C)c4cccc(c34)C2=O)c1 [BC20261] | + (“+” >25% increase in NMNAT2 luciferase activity at >25 μM.) |
| Cc1cccc(CNC(=O)c2ccc3c(c2)c(C)c(C)n3Cc2ccccc2F)c1 [BC20195] | + (“+” >25% increase in NMNAT2 luciferase activity at >25 μM.) |
| Cc1ccc(C)c(Cn2c(C)c([C@H]3C[C@@H]3C(=O)NCc3cccc(F)c3)c3ccccc32)c1 (racemic) [BC20302] | + (“+” >25% increase in NMNAT2 luciferase activity at >25 μM.) |
| Cc1ccccc1CNC(=O)c1ccc2c(c1)c(C)c(C)n2Cc1cccc(F)c1 [BC20113] | ++ (“++” >25% increase in NMNAT2 luciferase activity at >1 μM ≤25 μM.) |
| COc1ccc(CNC(=O)N2CCc3c(c4ccccc4n3CC(=O)NCc3ccco3)C2)cc1 [BC20330] | ++ (“++” >25% increase in NMNAT2 luciferase activity at >1 μM ≤25 μM.) |

From US20220169632A1, “METHODS AND MATERIALS FOR INCREASING OR MAINTAINING NICOTINAMIDE MONONUCLEOTIDE ADENYLYL TRANSFERASE-2 (NMNAT2) POLYPEPTIDE LEVELS” (University of Pittsburgh - Of the Commonwealth System of …, priority 2019, published 2022)
